Data from patent US20190350940A1, “PLATINUM COMPOUNDS, COMPOSITIONS, AND USES THEREOF” (priority 2015, published 2019).
“Also recorded” adds a separate entry of the source.

Tests used:
physchem = format: physicochemical; settings: for solubility at 1 hr: pH 4, aqueous buffer, thermodynamic from solid, Saturated solubility
Protocol: The formulations were prepared by stirring at room temperature for 1 hr. They were protected from light to minimize the formation of the amine product (Impurity 1) during the formulation.
The drug product process begins by preparation of a chilled, solution of 2.5% mannitol and 5 mM citrate buffer (pH about 4-5) solution to which Compound 8 drug substance is added at concentration of 5 mg/mL. […] The bulk solution is filter (0.2 μm) sterilized, aseptically filled into vials, and lyophilized. To minimize Compound 8 degradation, the bulk solution is maintained chilled and protected from light during processing. Lyophilizing Compound 8 as a dry powder was selected as the best means to minimize hydrolysis during storage. Finally, filter sterilization was chosen as the most benign means to sterilize the drug product.

[1] = pH stability: pH range screen in Britton Robinson buffer (Impurity 2 formation); format: physicochemical; settings: 0.1 mg/ml in Britton Robinson buffer, room temperature
Protocol: It has been well established in the literature that the maleimide group is susceptible to a ring-opening product at physiological pH values. In order to determine the stability of Compound 8 at a range of pH values, a stock solution of 10 mg/ml Compound 8 in N,N-dimethylformamide (DMF) was spiked into a series of Britton Robinson buffers with pH set at values of 2, 4, 5, 6, 7.3, and 8 to make a final concentration of 0.1 mg/ml Compound 8. The amount of Impurity 2 (maleimide ring opening impurity) that was produced over the course of 24 hr at room temperature is shown in FIG. 1.

[2] = pH stability: acidifying agents versus citrate buffered saline; format: physicochemical; settings: room temperature
Protocol: In order to determine whether a buffer would be required to maintain stability, two acidifying agents, hydrochloric acid and citric acid, were evaluated with respect to a control formulation in 5 mM citrate buffered saline. All vehicles were brought to a pH of 4 in saline and each formulation was made at 1 mg/ml concentration in each vehicle.

[3] = pH stability: buffering capacity (5 mM versus 100 mM citrate); format: physicochemical; settings: 5 mM versus 100 mM citrate saline pH about 4; impurity profile over 10 hr
Protocol: In order to assess the effect of the buffering capacity, formulations were made with 5 mM and 100 mM citrate saline pH about 4. Two formulations were made in 100 mM citrate, one at 0.1 mg/ml and the other at 1 mg/ml. A third formulation of 5 mM citrate at 1 mg/ml was made for comparison to determine whether increasing the buffering capacity improved the stability of the formulation.

[4] = Vial selection: clear versus amber (light versus dark); format: physicochemical; settings: 5 mM citrate buffer saline pH about 4, room temperature 24 hours
Protocol: To compare light versus dark conditions, Compound 8 was formulated in 5 mM citrate buffer saline at pH about 4 and placed into two separate vials (one clear and the other amber). The formulations were stored at room temperature for 24 hours and the amount of Impurity 1 and Impurity 2 was observed. From the FIGS. 4 and 5, it can be seen that exposing the Compound 8 solution to light in a clear vial caused an increase in the amount of Impurity 1 in comparison to the solution contained in an amber vial (˜10% Impurity 1 compared to ˜0.75% Impurity 1). […] Also, from these experiments it was concluded that the formation of Impurity 2 is not photosensitive but dependent upon the pH of the formulation.

[5] = Temperature effects: mock manufacturing process; format: physicochemical; settings: after 24 hrs
Protocol: In order to determine the effect of both temperature and light on the formation of the two main degradation products, mock manufacturing processes and mock clinical dilution studies were conducted. The mock process was simulated by formulating and holding the Compound 8 drug product at room temperature or under cold conditions (e.g. ice bath) for discreet amounts of time that would simulate the large scale manufacturing process. Once the samples went through the mock manufacturing process, they were stored at −20° C., as a frozen solution, and then thawed as they would be in the clinic prior to administration. For the mock clinical dilution study, each solution was diluted in saline, at the lowest dilution factor expected in the clinic. Then the diluted formulations were stored in syringes at room temperature and then assayed for potency and total impurities (from both procedures) at the end of the day.
For the mock manufacturing process, the room temperature samples were formulated and stored at room temperature for a total of 8 hrs and then refrigerated overnight. In contrast, the cold samples were formulated on ice, stored in the 2-8° C. for a total of 8 hrs, and at the end of the day frozen to −20° C.

human plasma = test: In vitro plasma protein binding, human plasma (Compound 8-DMPK-008); format: in vitro ADME; settings: incubation 10 minutes at 37° C.
[6] = Total plasma and plasma ultrafiltrate platinum pharmacokinetics in mouse; format: in vivo
Protocol: Nonclinical studies were performed to evaluate the PK of platinum in plasma after IV administration of Compound 8 in the mouse, rat, and dog. The analyses included platinum levels both in total plasma as well as plasma ultrafiltrate.
Compound 8 was administered in 2 different formulations in mice. The formulation used in pharmacology studies was 5% dimethyl sulfoxide (DMSO)/10% Solutol/Saline, and the formulation used in PK studies was 5 mM citrate pH about 4; this latter formulation is that used in GLP toxicology studies in the rat and is the human clinical formulation.

Microsomal stability = format: in vitro ADME; settings: NADPH-free controls
Source text: Microsomal stability could not be performed because negative controls failed. […] This is consistent with literature reports that microsomes contain protein thiols (Liebler D C, Meredith M J, Guengerich F P. Formation of glutathione conjugates by reactive metabolites of vinylidene chloride in microsomes and isolated hepatocytes. Cancer Res 1985; 45(1):186-93, the contents of which are incorporated herein by reference in their entirety), would react with Compound 8. CYP inhibition was studied to determine whether Compound 8 has an inhibitory effect on microsomes.

CYP2B6 = CYP2B6 (Homo sapiens, UniProt P20813); test: CYP inhibition, 2B6; format: in vitro ADME
Chain of CYP2B6 (P20813 whole entry): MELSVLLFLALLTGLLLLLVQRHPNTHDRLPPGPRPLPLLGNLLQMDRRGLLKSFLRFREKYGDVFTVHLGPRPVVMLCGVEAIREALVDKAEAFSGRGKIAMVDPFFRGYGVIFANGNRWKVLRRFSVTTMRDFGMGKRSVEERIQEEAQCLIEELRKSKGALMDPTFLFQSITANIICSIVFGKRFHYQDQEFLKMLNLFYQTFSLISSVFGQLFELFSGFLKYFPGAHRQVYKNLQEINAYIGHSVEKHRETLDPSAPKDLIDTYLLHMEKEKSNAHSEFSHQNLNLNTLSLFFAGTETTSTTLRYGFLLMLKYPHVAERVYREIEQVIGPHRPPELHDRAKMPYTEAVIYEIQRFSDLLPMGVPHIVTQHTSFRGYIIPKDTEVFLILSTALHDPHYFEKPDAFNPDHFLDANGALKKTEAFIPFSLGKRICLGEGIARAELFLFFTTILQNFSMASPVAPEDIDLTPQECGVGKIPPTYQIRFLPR

CYP2C8 = CYP2C8 (Homo sapiens, UniProt P10632); test: CYP inhibition, 2C8; format: in vitro ADME
Chain of CYP2C8 (P10632 whole entry): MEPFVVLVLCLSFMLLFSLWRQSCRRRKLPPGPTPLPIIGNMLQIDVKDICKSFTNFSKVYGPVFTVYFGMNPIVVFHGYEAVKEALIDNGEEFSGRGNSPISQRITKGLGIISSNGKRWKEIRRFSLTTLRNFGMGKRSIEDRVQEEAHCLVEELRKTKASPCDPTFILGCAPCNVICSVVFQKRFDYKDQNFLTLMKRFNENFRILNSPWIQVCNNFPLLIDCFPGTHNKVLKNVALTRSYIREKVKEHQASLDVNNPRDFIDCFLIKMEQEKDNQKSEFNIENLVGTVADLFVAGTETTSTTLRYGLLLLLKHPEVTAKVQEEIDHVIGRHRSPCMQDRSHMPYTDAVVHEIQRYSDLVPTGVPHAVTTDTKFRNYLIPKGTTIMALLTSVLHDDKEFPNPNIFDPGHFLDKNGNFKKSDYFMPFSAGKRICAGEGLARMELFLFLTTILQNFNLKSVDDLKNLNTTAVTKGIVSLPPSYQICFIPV

CYP2C19 = CYP2C19 (Homo sapiens, UniProt P33261); test: CYP inhibition, 2C19; format: in vitro ADME
Chain of CYP2C19 (P33261 whole entry): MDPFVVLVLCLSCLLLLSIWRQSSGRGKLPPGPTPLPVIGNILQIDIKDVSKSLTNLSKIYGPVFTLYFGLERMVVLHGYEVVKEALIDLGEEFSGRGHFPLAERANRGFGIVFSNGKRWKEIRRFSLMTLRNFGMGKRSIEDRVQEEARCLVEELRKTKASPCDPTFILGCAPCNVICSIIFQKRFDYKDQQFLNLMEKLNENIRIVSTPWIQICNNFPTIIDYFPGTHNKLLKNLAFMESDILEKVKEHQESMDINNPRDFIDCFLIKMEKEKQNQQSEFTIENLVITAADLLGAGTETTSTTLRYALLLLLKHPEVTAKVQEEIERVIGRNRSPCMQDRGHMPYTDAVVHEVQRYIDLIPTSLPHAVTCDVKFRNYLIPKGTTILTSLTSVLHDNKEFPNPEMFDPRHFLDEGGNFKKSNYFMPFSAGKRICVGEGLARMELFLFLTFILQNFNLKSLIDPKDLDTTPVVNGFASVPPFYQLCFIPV

[7] = formulated under cold conditions

CC(=O)[O][Pt]([NH2])([NH2])([Cl])([Cl])[O]C(=O)NCCCCCN1C(=O)C=CC1=O [Compound 8]
solubility at 1 hr (physchem; overall estimate): ~9 mg/mL | solubility at 1 hr (physchem; range of five different lots): 8 to 23 mg/mL | solubility (physchem; pH 4.5, aqueous buffer, Saturated solubility of the drug substance): 16 to 17 mg/mL | Impurity 2 (maleimide ring opening impurity) formation ([1]; pH 5, 4 hr): not detected | Impurity 2 (maleimide ring opening impurity) formation ([1]; pH 6, within 1 hr): not detected | Impurity 2 (maleimide ring opening impurity) formation ([1]; pH values below 4, up to 24 hr): not produced | Impurity 2 formation ([2]; 1 mg/ml in 5 mM citrate buffered saline pH 4, 24 hr): inhibits the formation of Impurity 2 | Impurity 2 formation ([2]; 1 mg/ml in saline brought to pH 4 with hydrochloric acid, after 24 hrs): over 2 % by area | Effect of buffering capacity on stability [3]: little effect | Amount of Impurity 1 ([4]; amber vial (dark)): ~0.75% | Amount of Impurity 1 ([4]; clear vial (light)): ~10% | Amount of Impurity 2 ([4]; clear vial (light)): 0.5% | Formation of Impurity 1 ([5]; formulated at room temperature): ~0.8% | Formation of Impurity2 ([5]; formulated at room temperature): ~0.3% | Formation of Impurity 1 [5, 7]: < 0.3% | Formation of Impurity2 [5, 7]: ~0.1% | Protein bound (human plasma): > 99% | Dose (MTD) [6]: 41.8 (MTD) mg/m^2 | Mean difference of AUC(0-48h) between the 2 formulations ([6]; in vivo): 5% | Portion of platinum in circulation free in the ultrafiltrate ([6]; in vivo): < 1% | Ultrafiltrate platinum to total ratio at Cmax ([6]; in vivo): 0.06 | Ultrafiltrate to total AUC ratio ([6]; in vivo): 0.0056 | Plasma free platinum AUC ([6]; in vivo, iv): 20.6 µM·h | Plasma free platinum Cmax ([6]; in vivo, iv): 15.9 µM | Stability in microsome preparations (Microsomal stability): below the limit of quantitation; also recorded: disappeared quickly | IC50 (CYP2B6): 582 nM | IC50 (CYP2C8): 680 nM | IC50 (CYP2C19): 2720 nM
